The nature of series [1]: Dolutegravir solubility in the presence of monovalent and divalent ions. The conditions noted are these: thermodynamic from solid, 20 mg in 12 ml. Type of series: physicochemical. Here is the method: Solubility was determined by dissolving 20 mg of dolutegravir into 12 ml of water containing the specified ion (see Table 1) at a concentration of 500 ppm.
Series [2] in a line: Solubility of dolutegravir in types of potable water (FIG. 1). The conditions noted are these: water with no ions present (purified water) vs other types of potable water. The series is classed as physicochemical. From the text: The solubility of dolutegravir is affected by the use of different types of potable water, for example purified water, tap water and different brands of bottled water (see FIG. 1). The reason for this difference in solubility is believed to be due to the presence of ions typically found in water. When water with no ions present (purified water) is used to disperse dolutegravir, the solubility of dolutegravir is increased and a significant bitter taste may be observed.

As for `C[C@@H]1CCO[C@H]2Cn3cc(C(=O)NCc4ccc(F)cc4F)c(=O)c(O)c3C(=O)N12` [Dolutegravir, (4RX,12aS)-N-[(2,4-difluorophenyl)methyl]-7-hydroxy-4-methyl-6,8-dioxo-3,4,12,12a-tetrahydro-2H-pyrido[5,6]pyrazino[2,6-b][1,3]oxazine-9-carboxamide], the solubility (as a rule, the concentration that dissolves in the medium under given conditions) in series [1] (aqueous buffer, water containing calcium ion 500 ppm) turned out to be 30 µg/mL; in series [1] (aqueous buffer, water containing magnesium ion 500 ppm) it was 210 µg/mL; in series [1] (aqueous buffer, water containing potassium ion 500 ppm) it was 780 µg/mL; in series [1] (aqueous buffer, water containing sodium ion 500 ppm), 460 µg/mL; in series [1] (no ion (purified water)) it was 1200 µg/mL. Also, the solubility of dolutegravir entry in series [2] is “increased”.

The record behind these values is US20230285307A1, “Dispersible Tablet Formulations Comprising Dolutegravir” (ViiV Healthcare Company, priority 2020, published 2023).
